Experimental findings from ChEMBL document CHEMBL1142445, “Carbonic anhydrase inhibitors: inhibition of Plasmodium falciparum carbonic anhydrase with aromatic/heterocyclic sulfonamides-in vitro and in vivo studies” (Bioorg Med Chem Lett, 2008) are described below.

As a reminder, the Ki is a measure of affinity in units of concentration, obtained from inhibition or displacement. By IC50 is commonly meant the concentration needed to halve the response being measured. A low value points to greater potency.

Active and inactive are the calls of the source. No cut-off for these calls is given here. Bounds are passed on as bounds.

The nature of experiment [1]: (§1) Inhibition of Plasmodium falciparum recombinant carbonic anhydrase.
For experiment [2], the system named is Plasmodium falciparum. The experiment can be described thus: Ex vivo inhibition of Plasmodium falciparum growth in cultured cells after 48hrs as [3H]hypoxanthine uptake. The class given is functional, organism-based.
Experiment [3] relates to Plasmodium berghei. The experiment can be described thus: Antimalarial activity against Plasmodium berghei infected mice (Mus musculus). Format: functional. Conditions: read-out: ID50 (the source's name).
A further experiment deals with KB. The experiment can be described thus: Cytotoxicity against human KB cells. Format: functional, cell-based.
Another experiment relates to BC. The experiment can be described thus: Cytotoxicity against human BC cells. Format: functional, cell-based.
Experiment [4] deals with Plasmodium berghei. The experiment can be described thus: Antimalarial activity against Plasmodium berghei infected mice (Mus musculus) at 2.5 to 25 mg/kg. The class given is functional, organism-based.
Experiment [5] relates to Plasmodium falciparum. The description is as §1.

Turning to `Cn1ccnc1/C=N/CCCc1ccc(S(N)(=O)=O)cc1`, the Ki in experiment [1] was more than 25 µM. Also, in the experiment with Plasmodium falciparum [2], the half-maximal inhibitory concentration (IC50) is more than 50 µM.

With `NS(=O)(=O)c1ccc(NC(=O)c2cc3ccccc3oc2=O)cc1`, the inhibition constant (Ki) in experiment [1] worked out at 5.82 µM. This compound also yielded an IC50 in the experiment with Plasmodium falciparum [2] of more than 50 µM.

Consider `NS(=O)(=O)c1nnc(NC(=O)c2c(F)c(F)c(F)c(F)c2F)s1`, for which the Ki in experiment [1] was 3.44 µM. The same compound displayed a concentration for half-maximal inhibition (IC50) in the experiment with Plasmodium falciparum [2] of more than 50 µM.

For `NS(=O)(=O)c1ccc(CCNC(=O)c2cc3ccccc3oc2=O)cc1`, the Ki in experiment [1] came out at 13.2 µM. This compound also had an IC50 in the experiment on Plasmodium falciparum [2] of more than 50 µM.

Regarding `CN(C)c1ccc(/C=N/c2ccc(S(N)(=O)=O)cc2)cc1`, in experiment [1], the inhibition constant (Ki) was more than 25 µM. In addition, the IC50 with Plasmodium falciparum [2] is more than 50 µM.

As for `COc1ccc2c(CC(=O)Nc3cc(C(F)(F)F)c(S(N)(=O)=O)cc3S(N)(=O)=O)cc(=O)oc2c1`, the Ki in experiment [1] was 2.52 µM. Further, the IC50 with Plasmodium falciparum [2] was more than 50 µM.

In the case of `COc1ccc2c(CC(=O)NNc3ccc(S(N)(=O)=O)cc3)cc(=O)oc2c1`, in experiment [1], the Ki was 3.51 µM. In the experiment on Plasmodium falciparum [2], this compound returned an IC50 of more than 50 µM.

As for `NS(=O)(=O)c1ccc(NNC(=O)c2cc3ccccc3oc2=O)cc1`, the Ki in experiment [1] was 4.06 µM. The same compound displayed a half-maximal inhibitory concentration (IC50) in the experiment on Plasmodium falciparum [2] of more than 50 µM.

With `NS(=O)(=O)c1ccc(CNC(=S)NC(=O)c2ccc(Cl)c(Cl)c2)cc1`, the inhibition constant (Ki) in experiment [1] turned out to be 0.18 µM. Besides, the ED50 in the experiment on Plasmodium berghei [3] came out at 10 mg/kg. For the same compound, the outcome with KB and with BC was inactive. Moreover, 1 µM corresponded to half-maximal inhibition with Plasmodium falciparum [2] (IC50).

Take `CCN(CC)C(=S)SNc1ccc(S(N)(=O)=O)cc1`: the inhibition constant (Ki) in experiment [1] stood at 3 µM. The same compound registered an IC50 in the experiment with Plasmodium falciparum [2] of more than 50 µM.

With `NS(=O)(=O)c1ccc(C/N=C/c2ccccc2Cl)cc1`, the result in the experiment with Plasmodium berghei [4], in the experiment with KB and in the experiment with BC was inactive. Moreover, the inhibitory constant (Ki) in experiment [1] stood at 0.25 µM. Half-maximal inhibition in the experiment with Plasmodium falciparum [2] (IC50) was put at 3.89 µM.

Take `NS(=O)(=O)c1ccccc1NS(=O)(=O)c1c(F)c(F)c(F)c(F)c1F`: the inhibition constant Ki in experiment [1] came to 3.06 µM. Moreover, the IC50 with Plasmodium falciparum [2] was more than 50 µM.

Regarding `NS(=O)(=O)c1cc(S(N)(=O)=O)c(C(F)(F)F)cc1NC(=O)c1cc2ccccc2oc1=O`, the Ki in experiment [1] was 9.03 µM. The same compound showed an IC50 in the experiment with Plasmodium falciparum [2] of more than 50 µM.

With `COc1ccc2c(CC(=O)Nc3cccc(S(N)(=O)=O)c3)cc(=O)oc2c1`, the Ki in experiment [1] came to 4.58 µM. Also, in the experiment on Plasmodium falciparum [2], the IC50 is more than 50 µM.

Take `NS(=O)(=O)c1ccc(NC(=O)Nc2ccc(Cl)c(Cl)c2)cc1`: the Ki in experiment [1] came out at 5.58 µM. In the experiment on Plasmodium falciparum [2], the IC50 is more than 50 µM.

Regarding `NS(=O)(=O)c1nnc(NS(=O)(=O)c2c(F)c(F)c(F)c(F)c2F)s1`, the Ki in experiment [1] was 2.58 µM. Also, in the experiment with Plasmodium falciparum [2], the concentration for half-maximal inhibition (IC50) was more than 50 µM.

In the case of `NS(=O)(=O)c1ccc(CNC(=O)N(c2ccccc2)c2ccccc2)cc1`, the Ki in experiment [1] amounted to 16 µM. In the experiment with Plasmodium falciparum [2], the IC50 was more than 50 µM.

For `CC(=O)Nc1nnc(S(N)(=O)=O)s1` [ACETAZOLAMIDE], the outcome in the experiment on Plasmodium berghei [4], with KB and in the experiment on BC was inactive. For the same compound, the inhibition constant Ki in experiment [1] is 0.315 µM. In the experiment with Plasmodium falciparum [2], the IC50 was found to be 20 µM.

Take `C=C[C@H]1CN2CC[C@H]1C[C@H]2[C@H](O)c1ccnc2ccc(OC)cc12`: the outcome in the experiment on Plasmodium falciparum [5] was inactive.

For `CC(=O)NS(=O)(=O)c1ccc(NC(=S)Nc2ccc(S(N)(=O)=O)cc2)cc1`, in experiment [1], the Ki was 4.62 µM. The IC50 in the experiment on Plasmodium falciparum [2] is more than 50 µM.

Turning to `NS(=O)(=O)c1ccc(/N=C/c2ccc3ccccc3c2Br)cc1`, the inhibitory constant (Ki) in experiment [1] stood at 4.16 µM. Moreover, the IC50 in the experiment on Plasmodium falciparum [2] was more than 50 µM.

For `CN(C)c1ccc(/C=N/CCCc2ccc(S(N)(=O)=O)cc2)cc1`, in experiment [1], the Ki is more than 25 µM. Further, the half-inhibitory concentration (IC50) in the experiment on Plasmodium falciparum [2] is more than 50 µM.

In the case of `NS(=O)(=O)c1ccc(CNC(=O)c2cc3ccccc3oc2=O)cc1`, the Ki in experiment [1] is 5.05 µM. The same compound yielded an IC50 with Plasmodium falciparum [2] of more than 50 µM.

Take `CCN(CC)CCCC(C)Nc1ccnc2cc(Cl)ccc12` (stereo not drawn) [CHLOROQUINE]: the outcome in the experiment on Plasmodium falciparum [5] was inactive. Also, in the experiment on Plasmodium berghei [3], the ED50 came out at 5 mg/kg.

For the compound `NS(=O)(=O)c1ccc(NC(=O)c2ccc(S(N)(=O)=O)cc2)cc1`, the inhibition constant (Ki) in experiment [1] amounted to 3.05 µM. The IC50 in the experiment with Plasmodium falciparum [2] is more than 50 µM.

`CN(C)c1ccc(/C=N/Cc2ccc(S(N)(=O)=O)cc2)cc1`: the inhibitory constant (Ki) in experiment [1] is more than 25 µM. For the same compound, the 50% inhibitory concentration (IC50) in the experiment on Plasmodium falciparum [2] is more than 50 µM.

Regarding `NC(=S)Nc1ccc(S(N)(=O)=O)cc1`, in experiment [1], the Ki turned out to be 2.1 µM. For the same compound, in the experiment on Plasmodium falciparum [2], the IC50 is more than 50 µM.

With `Cn1nc(S(N)(=O)=O)s/c1=N/C(=O)c1c(F)c(F)c(F)c(F)c1F`, in experiment [1], the inhibitory constant (Ki) is 6.87 µM. For the same compound, the concentration for half-maximal inhibition (IC50) in the experiment on Plasmodium falciparum [2] is more than 50 µM.

As to `COc1ccc2c(CC(=O)Nc3ccccc3S(N)(=O)=O)cc(=O)oc2c1`, the Ki in experiment [1] was 1.44 µM. In the experiment on Plasmodium falciparum [2], this compound came in with an IC50 of more than 50 µM.

Take `NS(=O)(=O)c1cccc(NC(=O)c2cc3ccccc3oc2=O)c1`: in experiment [1], the Ki is more than 25 µM. Further, in the experiment on Plasmodium falciparum [2], the half-maximal inhibitory concentration (IC50) was more than 50 µM.

With `NS(=O)(=O)c1ccc(NS(=O)(=O)c2ccc(NC(=O)N(c3ccccc3)c3ccccc3)cc2)cc1`, the Ki in experiment [1] came out at 16.5 µM. The IC50 in the experiment with Plasmodium falciparum [2] is more than 50 µM.

With `NS(=O)(=O)c1ccccc1NC(=O)N(c1ccccc1)c1ccccc1`, the inhibition constant Ki in experiment [1] came to 1.99 µM. In the experiment with Plasmodium falciparum [2], this compound gave a half-maximal inhibitory concentration (IC50) of more than 50 µM.

As to `CCN(CC)C(=S)SNCc1ccc(S(N)(=O)=O)cc1`, the Ki in experiment [1] was 8.39 µM. In addition, the IC50 in the experiment with Plasmodium falciparum [2] was more than 50 µM.

As for `NS(=O)(=O)c1ccccc1NC(=O)c1cc2ccccc2oc1=O`, the Ki in experiment [1] stood at 18.5 µM. Also, the IC50 in the experiment with Plasmodium falciparum [2] is more than 50 µM.

Regarding `NS(=O)(=O)c1nnc(NS(=O)(=O)C(F)(F)C(F)(F)C(F)(F)C(F)(F)C(F)(F)C(F)(F)C(F)(F)C(F)(F)F)s1`, the inhibition constant Ki in experiment [1] is 0.192 µM. The IC50 with Plasmodium falciparum [2] is more than 50 µM.

Take `C[C@@H]1CC[C@H]2[C@@H](C)C(=O)O[C@@H]3O[C@@]4(C)CC[C@@H]1[C@]32OO4`: the result in the experiment with Plasmodium falciparum [5] was inactive.

For the compound `NS(=O)(=O)c1nnc(NC(=S)NC(=O)Nc2ccccc2)s1`, the Ki in experiment [1] amounted to 6.73 µM. In the experiment on Plasmodium falciparum [2], this compound had an IC50 of more than 50 µM.

In the case of `COc1ccc2c(CC(=O)Nc3ccc(S(N)(=O)=O)cc3)cc(=O)oc2c1`, the Ki in experiment [1] stood at 0.97 µM. Besides, in the experiment on Plasmodium falciparum [2], the half-maximal inhibitory concentration (IC50) is more than 50 µM.
